Experimental data: patent publication US20240130675A1, “Methods for Treating Autism Spectrum Disorder” (The General Hospital Corporation, priority 2021, published 2024)

Tests used:
youth with ASD = assay: 12-week randomized, double-blind, placebo-controlled trial: efficacy on autism related impairments (SRS-2, CGI-I, ABC-Social Withdrawal, CY-BOCS-PDD); format: in vivo, human; set-up: SRS-SCI / SRS-Social Cognition / SRS-Social Awareness / SRS-Social Motivation / SRS-Social Communication / SRS-Autistic Mannerisms / ABC-Social Withdrawal: scale not given here; settings: for ABC-Social Withdrawal / CY-BOCS-PDD / SRS-Autistic Mannerisms / SRS-SCI / SRS-Social Awareness / SRS-Social Cognition / SRS-Social Communication / SRS-Social Motivation / SRS-Total: MEM [N = 16]
Description: This study was a 12-week, randomized, double-blind, placebo-controlled, parallel group clinical trial of memantine in youth with ASD. Youth with ASD who met the eligibility criteria were randomized to receive either memantine or placebo during the course of the 12-week trial. Participants underwent multimodal MRI scans prior to and upon completion of the 12-week trial. Participants were assessed weekly during the titration phase (baseline to Week 4) and at midpoint (Week 6), Week 9, and completion (Week 12) during the maintenance phase. At each study visit, safety and efficacy were assessed by administering measures of efficacy (CGI, GAF), tolerability (assessing treatment-emergent AEs), and safety (vital signs, including weight). At baseline, midpoint, and endpoint (completion/early termination) severity of autism was assessed by administering measures of autism severity (SRS-2, ABC-SW, CY-BOCS-PDD) and associated psychopathology (ADHD-RS, CDRS-R, CASI-ANX).
Eligible participants were of both sexes, aged 8 to 17 years, with intact intellectual ability, as established by a full-scale intelligence quotient of 85 or greater based on the Vocabulary and Matrix Reasoning subtests of the Wechsler Abbreviated Scale of Intelligence-Second Edition (WASI-II (Wechsler, 2011)). Participants were required to meet DSM-IV-TR/5 diagnostic criteria for autism, as established by clinical diagnostic evaluation and to have at least moderate severity of ASD, as determined by a total raw score of 85 or greater on the informant-rated Social Responsiveness Scale-Second Edition (SRS-2; (Constantino et al., 2003)) and a score of 4 or greater on the clinician-rated National Institute of Mental Health (NIMH) Clinical Global Impression (CGI) severity scale (CGI-S; (National Institute of Mental Health, 1985)).
In this 12-week, randomized, double-blind, placebo-controlled, parallel group clinical, ASD participants were randomized in a 1:1 ratio to receive memantine or placebo. An independent statistician created a computer-generated randomization schedule, using stratified randomization by sex (male vs. female) and race (Caucasian vs. Non-Caucasian). The Clinical Trials Pharmacy at MGH dispensed the study medication (memantine and placebo) based on the randomization schedule. The randomization schedule remained confidential throughout the study.
Study medication was titrated to the maximum daily dose during the first 4 weeks of the trial (dose titration phase) and from there on, subjects were maintained on maximum achieved dose until the end of the trial (dose maintenance phase). Titration of the study medication was guided by a flexible titration schedule which allowed for slower titration or maintaining at a lower dose, as guided by study clinician judgment of tolerability. Study medication was administered in divided dosages. Study medication was initiated at 2.5 mg/day (raised to 5 mg/day on day 4) and was up-titrated by 5 mg/week to a maximum dose of 20 mg/day.
The efficacy of memantine for the treatment of autism related impairments was assessed by the informant-rated Social Responsiveness Scale—Second Edition (SRS-2) as continuous outcome measure, and by the clinician-rated CGI-I subscale, as categorical outcome measure. Treatment response criteria for this trial was defined as≥25% improvement on the SRS-2 and a score of 2 or 1 on the CGI-I subscale, i.e., “much” or “very much improved.”
Additional treatment response of autism impairment was examined for the ASD subdomains by assessing change with treatment in the severity of the SRS-2 subscales and the Children's Yale Brown Obsessive Compulsive Scale modified for PDD (CY-BOCS-PDD) (Goodman et al., 1986 (Rev 89); Scahill et al., 2006) to assess change with treatment in the ritualistic behaviors associated with ASD. […]

adults with HF-ASD = settings: cited from earlier work

**Q.** Which results are given for CC12CC3CC(C)(C1)CC(N)(C3)C2 [MEM, memantine]?
**A.** SRS-Social Awareness, ES [95% CI] (youth with ASD; Cohen's d, MEM vs PBO): 0.74; SRS-Social Cognition, ES [95% CI] (youth with ASD; Cohen's d, MEM vs PBO): 0.83; ABC-Social Withdrawal (youth with ASD; BL (baseline)): 12.5 ± 8.6; CY-BOCS-PDD (youth with ASD; BL (baseline)): 2.9 ± 5.4; SRS-Autistic Mannerisms (youth with ASD; BL (baseline)): 21.1 ± 5.9; SRS-SCI (youth with ASD; BL (baseline)): 93.5 ± 17.0; SRS-Social Awareness (youth with ASD; BL (baseline)): 14.3 ± 3.0; SRS-Social Cognition (youth with ASD; BL (baseline)): 20.0 ± 3.9; SRS-Social Communication (youth with ASD; BL (baseline)): 40.1 ± 8.1; SRS-Social Motivation (youth with ASD; BL (baseline)): 19.1 ± 6.9; SRS-Total (youth with ASD; BL (baseline)): 114.5 ± 21.3; ABC-Social Withdrawal (youth with ASD; EP (endpoint)): 5.6 ± 5.4; CY-BOCS-PDD (youth with ASD; EP (endpoint)): 1.9 ± 4.0; SRS-Autistic Mannerisms (youth with ASD; EP (endpoint)): 13.4 ± 3.8; SRS-SCI (youth with ASD; EP (endpoint)): 63.8 ± 20.0; SRS-Social Awareness (youth with ASD; EP (endpoint)): 10.7 ± 3.0; SRS-Social Cognition (youth with ASD; EP (endpoint)): 13.7 ± 4.5; SRS-Social Communication (youth with ASD; EP (endpoint)): 27.0 ± 10.4; SRS-Social Motivation (youth with ASD; EP (endpoint)): 12.4 ± 5.7; SRS-Total (youth with ASD; EP (endpoint)): 77.0 ± 22.5; ABC-Social Withdrawal (youth with ASD; MD (mean difference)): −6.9 ± 7.0; CY-BOCS-PDD (youth with ASD; MD (mean difference)): −0.9 ± 2.1; SRS-Autistic Mannerisms (youth with ASD; MD (mean difference)): −7.8 ± 6.4; SRS-SCI (youth with ASD; MD (mean difference)): −29.8 ± 22.2; SRS-Social Awareness (youth with ASD; MD (mean difference)): −3.6 ± 3.9; SRS-Social Cognition (youth with ASD; MD (mean difference)): −6.3 ± 5.6; SRS-Social Communication (youth with ASD; MD (mean difference)): −13.0 ± 9.4; SRS-Social Motivation (youth with ASD; MD (mean difference)): −6.8 ± 5.4; SRS-Total (youth with ASD; MD (mean difference)): −37.6 ± 27.9; ≥25% ↓↓SRS + CGI-I ≤ 2, ES [95% CI] (youth with ASD; Odds Ratio, MEM vs PBO): 4.82; Social behaviors (adults with HF-ASD; 12-week treatment, 20 mg/day, adults with HF-ASD): significant improvement in social behaviors; Responders (adults with HF-ASD; pilot study, 15-20 mg daily): four out of seven
